Values quoted from earlier work, collected in patent US20200000750A1, “Composition for Treating Acute and Chronic Pain” (priority 2018, published 2020).

How the values were obtained:
acute attacks of gout = conditions: literature; colchiceine at 5 to 8 mg orally
humans = conditions: with the doses mentioned
granulocytopoiesis = conditions: animals and humans; compared with colchicine
spermatogenesis = conditions: in vivo
[1] = literature
[2] = tested on: mitosis, spindle formation; conditions: for antimitotic effect (mitotic or spindle poison): literature; for antagonism of colchicine: literature (Benitez et al. 1954)

COc1cc2c(c(OC)c1OC)-c1ccc(OC)c(=O)cc1[C@@H](NC(C)=O)CC2 [Colchicine, colchicine]
anti-gout effect in acute attacks of gout (acute attacks of gout): dramatic relief of acute attacks of gout

CN[C@H]1CCc2cc(OC)c(OC)c(OC)c2-c2ccc(OC)c(=O)cc21 [Desacetylmethylcolchicine]
alopecia (humans): temporary total alopecia | loss of feathers (birds): loss of feathers | effect on granulocytopoiesis (granulocytopoiesis): very depressing effect on granulocytopoiesis, much greater than colchicine | effect on spermatogenesis (spermatogenesis): Impairment of spermatogenesis

COc1cc2c(c(OC)c1OC)-c1ccc(=O)c(OC)cc1[C@@H](NC(C)=O)CC2 [Iso-colchicine]
anti-gout effect in acute attacks of gout (acute attacks of gout): little or no anti-gout effects | toxicity [1]: relatively nontoxic | antimitotic effect (mitotic or spindle poison) [2]: relatively ineffective as mitotic poisons

O=C(CCc1ccc(O)cc1)c1c(O)cc(O)cc1O[C@@H]1O[C@H](CO)[C@@H](O)[C@H](O)[C@H]1O [Phlorizine]
increase of the antimitotic effect of colchicine (synergist) ([2]; literature (H. R. Littre, et al. 1951)): eight times

COc1cc2c(c(OC)c1OC)-c1ccc(=O)c(O)cc1[C@@H](NC(C)=O)CC2 [colchiceine]
anti-gout effect in acute attacks of gout (acute attacks of gout): no anti-gout effects | diarrheal effect [1]: very weak | antimitotic effect (mitotic or spindle poison) [2]: very weak antimitotic

COc1c(O[C@@H]2O[C@H](CO)[C@@H](O)[C@H](O)[C@H]2O)cc2c(c1OC)-c1ccc(OC)c(=O)cc1[C@@H](NC(C)=O)CC2 [colchicoside]
anti-gout effect in acute attacks of gout (acute attacks of gout): equivocal results

O[C@H]1[C@H](O)[C@@H](O)[C@H](O)[C@@H](O)[C@H]1O [mesoinosital]
antagonism of colchicine [2]: potent antagonist of colchicine

O=c1cccccc1O [tropolone]
antimitotic effect (mitotic or spindle poison) [2]: not a spindle poison but rather favors the formation of the spindle | antagonism of colchicine [2]: potent antagonist of colchicine
